Experiment: Drug solubility versus pH
Format: physicochemical
Settings: pH above 7.4
Description: Media provides sink conditions for maximum release of the drug from pharmaceutical system as well as aids in solubilization of drug for release; therefore, proper selection of media can be important. Media of different pH was used for selection of the correct media for dissolution of the naltrexone implantable tablets. The following five dissolution media were used from pH ranging from 1.2 to 7.4. The pH above 7.4 was not used, as the drug solubility is reduced at pH above 7.4.

O=C1CC[C@@]2(O)[C@H]3Cc4ccc(O)c5c4[C@@]2(CCN3CC2CC2)[C@H]1O5 [Naltrexone, 17-(cyclopropylmethyl)-4,5α-epoxy-3,14-dihydroxymorphinan-6-one]
drug solubility: reduced

Reference: patent US10507184B2, “Implantable Naltrexone tablets” (RUSAN PHARMA LIMITED, priority 2015, dated 2019)
